Here are results for one molecule from patent publication US20160038459A1, “COMPOSITIONS AND METHODS FOR THE TREATMENT OF NATAL AND PRE-NATAL CONDITIONS WITH ALPHA-TOCOPHEROL” (Northwestern University, priority 2014, published 2016).

In data set [1] the test system is pup lung dendritic cell subsets. Briefly: Flow cytometry analysis of pup lung dendritic cell subsets. Type of data set: in vivo, C57BL/6 mice. Here is the method: (§1) Following BAL of pups, lungs were removed for analysis of dendritic cell types by flow cytometry. In the fetus, hematopoiesis occurs in the fetal livers. Gestational day 18 fetal livers were collected for analysis of fetal liver DCs. Briefly, tissues were minced and suspended in 5 ml of RPMI solution containing 1 mg/ml collagenase D (Roche) and 0.2 mg/ml DNase I (Roche) at 37° C. with agitation. After 1 h, samples were filtered through sterile 70-μm mesh tissue, centrifuged, and resuspended in 5% FBS-RPMI solution. Red blood cells were lysed in 1×BD PharmLyse Lysing Buffer (BD Biosciences), and the cells were washed two times in PBS. All centrifugation steps were carried out at 300 g for 5 min. Three million cells were used per sample for immunolabeling.
The cells were stained for live/dead exclusion in 500 μl PBS containing 0.25 μl of Aqua fluorescent reactive dye (Molecular Probes, Invitrogen) for 20 min at room temperature in the dark. Next, FC receptors were blocked by incubating the cells in 50 μl flow cytometry staining buffer (Biolegend) with 0.75 μl purified rat anti-mouse CD16/CD32 Mouse BD FC Block (no. 553142; BD Pharmingen) for 10 min at 4° C.
To prepare the antibodies for immunolabeling, for each sample equivalent, an antibody stock was prepared by adding the following antibodies to 50 μl of flow cytometry buffer: 1) Live/Dead Aqua fluorescent dye (no. L34957; Molecular Probes, Invitrogen), 0.25 μl/sample; 2) CD45, rat anti-mouse FITC-conjugated, 0.5 mg/ml, clone 30-F11 (no. 103107; Biolegend), 0.31 μl/sample; 3) CD11b, rat anti-mouse PE-CF594-conjugated, 0.2 mg/ml, clone M1/70 (no. 562317; BD Biosciences), 0.05 μl/sample; 4) Ly-6C, rat anti-mouse APC/Cy7-conjugated, 0.2 mg/ml, clone HK1.4 (no. 128025; Biolegend), 0.4 μl/sample; 5) CD11c, Armenian hamster anti-mouse PE/Cy7-conjugated, 0.2 mg/ml, clone N418 (no. 117317; Biolegend), 0.2 μl/sample; 6) I-A/I-E (MHCII), rat anti-mouse PerCP/Cy5.5-conjugated, 0.2 mg/ml, clone M5/114.15.2 (no. 107625; Biolegend), 0.1 μl/sample; 7) CD103, Armenian hamster anti-mouse Brilliant Violet 421-conjugated, clone 2E7 (no. 121421; Biolegend), 0.2 μl/sample; 8) CD317 (PDCA-1), rat anti-mouse APC-conjugated, 0.2 mg/ml, clone 927 (no. […]
(§2) The cells were examined with a BD LSRII flow cytometer (BD Biosciences). […] Fluorescence Minus One staining controls were used as negative controls to identify gates for populations of interest. The following subpopulations of DCs were analyzed: 1) resident conventional DCs: CD11b+Ly6C−CD11chighMHCIIhigh; 2) CD11b+ alveolar DCs: CD11b+Ly6C−CD11c+MHCII−; 3) inflammatory DCs: CD11b+Ly6C+CD11c+MHCII+; 4) plasmacytoid DCs (pDCs): CD11b−Ly6C−CD11clowPDCA-1+MHCII−; 5) resident CD103+DCs: CD11b−Ly6C−CD11c+CD103+MHCII−; and 6) CD11b−alveolar DCs: CD11b−Ly6C−CD11c+MHCII+/−. […]
In general terms: Flow cytometry measures light scatter and fluorescence of single cells or particles in a stream.

Data set [2] relates to fetal liver dendritic cell subsets. Briefly: Flow cytometry analysis of gestational day 18 fetal liver dendritic cells. The data set is classed as in vivo, C57BL/6 mice. Here is the method: as §1, with “immunolabeling. […]” for “immunolabeling.”
as §2

Data set [3] relates to bone marrow-derived DCs co-cultured with CD4+ T cells. In words: Bone marrow-derived DCs co-cultured 48 hours with purified CD4+ T cells. The data set is classed as cell-based. As to conditions: 80 μM α-T; 48 hours co-culture (not shown). Here is the method: FIGS. 17A-C show α-T and γ-T have opposing effects in regulation of DC development and function in vitro. FIGS. 17A and B show results from bone marrow from postnatal day 10 neonate (with basal diet) that was cultured with GM-CSF and with 80 μM αT (FIG. 17B) or 2 μM γT (FIG. 17A) for 8 days and analyzed for DC subsets by immunolabeling/flow cytometry. *, p<0.05 compared to DMSO group. **, p<0.05 compared to indicated group. […] Expression by qPCR. There was no effect on cell viability (not shown). n=3. **, p<0.05 compared to all other groups. *, p<0.05 compared to DMSO group.

Setting [4] is: PND13 OVA-challenged pups, maternal supplementation.

For `Cc1c(C)c2c(c(C)c1O)CC[C@@](C)(CCC[C@H](C)CCC[C@H](C)CCCC(C)C)O2` [D-α-tocopherol, D-α-Tocopherol], in data set [1] (setting [4]), the “lung tissue number of CD11c+CD11b+ subsets of DCs, including resident conventional DCs, mDCs, and CD11b+ alveolar DCs” value was “significantly reduced”; the “pup lung CD11c+CD11b− subsets of cells, including pDCs, resident CD103+DCs, CD11b− alveolar DCs, and alveolar macrophages” value is “did not alter”. Also, the “mean fluorescence intensity for MHCII, CD80, and CD86 on CD11c+CD11b+DCs and CD11c+CD11b−DCs” value in data set [1] (pup lung, among the groups (data not shown)) is “not different”. Also, in data set [1] (supplementation of allergic mothers, OVA-challenged pups, 0.3 with basal diet), the “pup lung pDC-to-cDC ratio” value is 0.53. Moreover, in data set [2] (maternal supplementation (data not shown)), the “fetal liver CD11c+CD11b− subsets” value is “not altered”. Besides, the “number of CD11c+CD11b+DCs in fetal livers, including phenotype of mDCs and of resident DCs” value in data set [2] (supplementation of allergic mothers) was “reduced”. The cell viability result in data set [3] was “no effect”.
